The NIST ThermoML archive (doi:10.1021/je700707y)
“And” between values parts separate entries of the source, which are not always exact repeats. Equal values may be shown once.

What was measured:
[1] = wn = mass fraction of the nth substance listed; details: Liquid, Vibrating tube method, w2 = 0.001
[2] = 101.33 kPa, Liquid, Vibrating tube method

CCCCn1cc[n+](C)c1.F[P-](F)(F)(F)(F)F [1-butyl-3-methylimidazolium hexafluorophosphate] + O
[1], 101 kPa
Details	mass density [kg/m3]
293.15 K	1367.5
298.15 K	1363.4
303.15 K	1359.2
308.15 K	1355.2
313.15 K	1351
318.15 K	1346.8
323.15 K	1342.4
328.15 K	1338.5
333.15 K	1334.4
338.15 K	1330.3
343.15 K	1326.2

C[N+]1(CC#N)CCCC1.O=S(=O)([N-]S(=O)(=O)C(F)(F)F)C(F)(F)F
[2]
Details	mass density [kg/m3]
293.15 K	1545.4
298.15 K	1537.8
303.15 K	1533.1
313.15 K	1523.8
323.15 K	1514.5
333.15 K	1505.5
343.15 K	1496.7
353.15 K	1487.8
363.15 K	1479

CCCCn1cc[n+](C)c1.O=S(=O)([O-])C(F)(F)F [1-butyl-3-methylimidazolium trifluoromethanesulfonate]
[2]
Details	mass density [kg/m3]
293.15 K	1301.3
303.15 K	1293.4
313.15 K	1285.6
323.15 K	1277.7
333.15 K	1269.9
343.15 K	1262.3
353.15 K	1254.5
363.15 K	1246.9

N#CC[n+]1ccccc1.O=S(=O)([N-]S(=O)(=O)C(F)(F)F)C(F)(F)F
[2]
Details	mass density [kg/m3]
293.15 K	1636.2
298.15 K	1631.2
303.15 K	1626.2
313.15 K	1616.2
323.15 K	1606.4
333.15 K	1596.8
343.15 K	1587.3
353.15 K	1577.7
363.15 K	1568.3

CCOS(=O)(=O)[O-].CCn1cc[n+](C)c1 [1-ethyl-3-methylimidazolium ethyl sulfate]
[2]
Details	mass density [kg/m3]
293.15 K	1242.3
303.15 K	1235.6
313.15 K	1228.9
323.15 K	1222.1
333.15 K	1215.5
343.15 K	1208.8
353.15 K	1202.2
363.15 K	1195.6

CCCCCCCCCCn1cc[n+](C)c1.O=S(=O)([N-]S(=O)(=O)C(F)(F)F)C(F)(F)F
[2]
Details	mass density [kg/m3]
293.15 K	1282.4
303.15 K	1273.8
313.15 K	1265.3
323.15 K	1256.8
333.15 K	1248.3
343.15 K	1239.9
353.15 K	1231.4
363.15 K	1223.1

CCn1cc[n+](C)c1.O=S(=O)([N-]S(=O)(=O)C(F)(F)F)C(F)(F)F
[2]
Details	mass density
293.15 K	1522.9 kg/m3 and 1523.4 kg/m3
298.15 K	1517.9 kg/m3
303.15 K	1512.9 kg/m3 and 1513.4 kg/m3
308.15 K	1507.9 kg/m3
313.15 K	1502.9 kg/m3 and 1503.4 kg/m3
318.15 K	1497.9 kg/m3
323.15 K	1492.9 kg/m3 and 1493.4 kg/m3
328.15 K	1488 kg/m3
333.15 K	1483 kg/m3 and 1483.5 kg/m3
338.15 K	1478 kg/m3
343.15 K	1473 kg/m3 and 1473.7 kg/m3
353.15 K	1463.8 kg/m3
363.15 K	1454 kg/m3

CCCCCCCCCCCCCC[P+](CCCCCC)(CCCCCC)CCCCCC.O=S(=O)([N-]S(=O)(=O)C(F)(F)F)C(F)(F)F + O
Details	mass density [kg/m3]
[1], 298.15 K, 100 kPa	1060.1

CCn1cc[n+](C)c1.O=S(=O)([N-]S(=O)(=O)C(F)(F)F)C(F)(F)F + O
[1], 101 kPa
Details	mass density [kg/m3]
293.15 K	1520
298.15 K	1515
303.15 K	1510
308.15 K	1504.9
313.15 K	1499.8
318.15 K	1494.8
323.15 K	1489.8
328.15 K	1484.8
333.15 K	1479.7
338.15 K	1474.7
343.15 K	1469.7

CCCCCC[n+]1ccn(C)c1.FC(F)(F)C(F)(F)[P-](F)(F)(F)(C(F)(F)C(F)(F)F)C(F)(F)C(F)(F)F
[2]
Details	mass density [kg/m3]
293.15 K	1557.1
298.15 K	1551.8
303.15 K	1546.4
313.15 K	1535.7
323.15 K	1525
333.15 K	1514.3
343.15 K	1503.6
353.15 K	1493
363.15 K	1482.4

CCCCCCCCCCn1cc[n+](C)c1.O=S(=O)([N-]S(=O)(=O)C(F)(F)F)C(F)(F)F + O
Details	mass density [kg/m3]
[1], 298.15 K, 100 kPa	1275.5

CCCC[n+]1ccn(C)c1.O=S(=O)([N-]S(=O)(=O)C(F)(F)F)C(F)(F)F + O
[1], 101 kPa
Details	mass density [kg/m3]
293.15 K	1439.9
298.15 K	1435.1
303.15 K	1430.3
308.15 K	1425.5
313.15 K	1420.7
318.15 K	1416
323.15 K	1411.2
328.15 K	1406.5
333.15 K	1401.7
338.15 K	1396.9
343.15 K	1392.2

CCCCCC[n+]1ccn(C)c1.O=S(=O)([N-]S(=O)(=O)C(F)(F)F)C(F)(F)F
[2]
Details	mass density [kg/m3]
293.15 K	1375.1
303.15 K	1366
313.15 K	1356.9
323.15 K	1347.9
333.15 K	1338.8
343.15 K	1329.8
353.15 K	1320.9
363.15 K	1311.9

CCCCn1cc[n+](C)c1.F[P-](F)(F)(F)(F)F [1-butyl-3-methylimidazolium hexafluorophosphate]
[2]
Details	mass density
293.15 K	1369.8 kg/m3 and 1368.1 kg/m3
298.15 K	1365.7 kg/m3 and 1364.1 kg/m3
303.15 K	1361.6 kg/m3 and 1360 kg/m3
308.15 K	1357.4 kg/m3 and 1355.7 kg/m3
313.15 K	1353.3 kg/m3 and 1351.8 kg/m3
318.15 K	1349.2 kg/m3 and 1347.5 kg/m3
323.15 K	1345.1 kg/m3 and 1343.5 kg/m3
328.15 K	1341 kg/m3 and 1339.4 kg/m3
333.15 K	1336.9 kg/m3 and 1335.2 kg/m3
338.15 K	1332.7 kg/m3 and 1331.1 kg/m3
343.15 K	1328.6 kg/m3 and 1327 kg/m3

CCCC[n+]1ccn(C)c1.O=S(=O)([N-]S(=O)(=O)C(F)(F)F)C(F)(F)F
[2]
Details	mass density
293.15 K	1442.7 kg/m3 and 1440.2 kg/m3
298.15 K	1437.9 kg/m3
303.15 K	1433.1 kg/m3 and 1430.7 kg/m3
308.15 K	1428.3 kg/m3
313.15 K	1423.5 kg/m3 and 1421.2 kg/m3
318.15 K	1418.8 kg/m3
323.15 K	1414 kg/m3 and 1411.8 kg/m3
328.15 K	1409.3 kg/m3
333.15 K	1404.5 kg/m3 and 1402.4 kg/m3
338.15 K	1399.7 kg/m3
343.15 K	1395 kg/m3 and 1393 kg/m3
353.15 K	1383.6 kg/m3
363.15 K	1374.3 kg/m3

CCCCCCCCn1cc[n+](C)c1.O=S(=O)([N-]S(=O)(=O)C(F)(F)F)C(F)(F)F
[2]
Details	mass density [kg/m3]
293.15 K	1324.5
303.15 K	1315.8
313.15 K	1307
323.15 K	1298.2
333.15 K	1289.5
343.15 K	1280.8
353.15 K	1272.1
363.15 K	1263.5

CCCCn1cc[n+](C)c1.F[B-](F)(F)F [1-butyl-3-methylimidazolium tetrafluoroborate] + O
Details	mass density [kg/m3]
[1], 298.15 K, 100 kPa	1197.5

CCCCn1cc[n+](C)c1.F[B-](F)(F)F [1-butyl-3-methylimidazolium tetrafluoroborate]
[2]
Details	mass density
293.15 K	1203.8 kg/m3 and 1204.9 kg/m3
298.15 K	1200 kg/m3 and 1201.1 kg/m3
303.15 K	1196.2 kg/m3 and 1197.4 kg/m3
308.15 K	1192.4 kg/m3 and 1193.8 kg/m3
313.15 K	1188.9 kg/m3 and 1190.1 kg/m3
318.15 K	1185.4 kg/m3 and 1186.5 kg/m3
323.15 K	1181.3 kg/m3 and 1182.7 kg/m3
328.15 K	1177.9 kg/m3 and 1179 kg/m3
333.15 K	1174.1 kg/m3 and 1175.3 kg/m3
338.15 K	1170.5 kg/m3 and 1171.7 kg/m3
343.15 K	1166.9 kg/m3 and 1168 kg/m3

Cn1cc[n+](C)c1.N#C[S-] [1,3-dimethylimidazolium thiocyanate]
[2]
Details	mass density [kg/m3]
293.15 K	1160.7
298.15 K	1157.4
303.15 K	1154.2
313.15 K	1147.8
323.15 K	1141.4
333.15 K	1135.2
343.15 K	1129.1
353.15 K	1123.1
363.15 K	1117.2

CCCCCCCCCCCCCC[P+](CCCCCC)(CCCCCC)CCCCCC.O=S(=O)([N-]S(=O)(=O)C(F)(F)F)C(F)(F)F
[2]
Details	mass density [kg/m3]
293.15 K	1067.6
303.15 K	1060.3
313.15 K	1052.9
323.15 K	1045.7
333.15 K	1038.6
343.15 K	1031.5
353.15 K	1024.4
363.15 K	1017.3

CCCC[N+]1(C)CCCC1.FC(F)(F)C(F)(F)[P-](F)(F)(F)(C(F)(F)C(F)(F)F)C(F)(F)C(F)(F)F
[2]
Details	mass density [kg/m3]
293.15 K	1588.1
303.15 K	1577.3
313.15 K	1566.8
323.15 K	1556.4
333.15 K	1545.9
343.15 K	1535.5
353.15 K	1525.1
363.15 K	1514.7
